According to patent publication US9834542B2, “LXR modulators” (BRISTOL-MYERS SQUIBB COMPANY, priority 2013, dated 2017):

Target: T1, LXRβ (Homo sapiens, UniProt P55055)
T1 construct: Co-transfection expression plasmids, comprising full-length LXRα (pCMX-h LXRα[…] or LXRβ (pCMX-hLXRβ)); expressed in transfected cells; host or cells: CV-1 African Green Monkey Kidney Cells
T1 sequence (P55055 1-460): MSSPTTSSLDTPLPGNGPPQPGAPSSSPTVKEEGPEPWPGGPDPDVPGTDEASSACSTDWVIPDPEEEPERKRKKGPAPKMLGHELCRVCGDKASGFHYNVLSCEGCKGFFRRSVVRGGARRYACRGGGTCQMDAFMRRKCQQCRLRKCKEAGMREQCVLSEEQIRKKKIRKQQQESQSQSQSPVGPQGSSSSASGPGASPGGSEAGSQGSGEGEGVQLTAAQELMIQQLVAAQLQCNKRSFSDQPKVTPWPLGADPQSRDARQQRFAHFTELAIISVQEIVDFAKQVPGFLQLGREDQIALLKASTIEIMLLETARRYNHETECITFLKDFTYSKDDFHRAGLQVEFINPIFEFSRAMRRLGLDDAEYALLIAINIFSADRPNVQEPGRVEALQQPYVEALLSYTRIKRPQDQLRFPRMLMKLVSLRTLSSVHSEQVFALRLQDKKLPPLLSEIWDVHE
T1 sequence (P19793 1-462 partner): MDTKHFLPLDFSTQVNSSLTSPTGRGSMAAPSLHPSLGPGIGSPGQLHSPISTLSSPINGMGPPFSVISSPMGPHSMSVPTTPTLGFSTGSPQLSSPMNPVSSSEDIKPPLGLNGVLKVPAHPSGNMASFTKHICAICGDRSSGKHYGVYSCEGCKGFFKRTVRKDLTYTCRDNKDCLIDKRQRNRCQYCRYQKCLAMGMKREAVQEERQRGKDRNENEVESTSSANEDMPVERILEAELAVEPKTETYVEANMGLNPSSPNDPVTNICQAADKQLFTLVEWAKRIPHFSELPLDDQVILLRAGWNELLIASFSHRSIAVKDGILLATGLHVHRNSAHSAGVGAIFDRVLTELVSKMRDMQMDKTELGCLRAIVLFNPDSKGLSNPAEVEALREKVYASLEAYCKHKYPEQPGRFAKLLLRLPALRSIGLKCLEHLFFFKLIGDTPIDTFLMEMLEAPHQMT
Test: Co-transfection assay (LXRE luciferase reporter), LXRβ
Format: cell-based
Conditions: for EC50: CV-1 cells transfected with pCMX-hLXRβ and LXREx1-Tk-Luciferase, 20 hours incubation; for Emax: LXRβ co-transfection, relative to high control 1-(2,4-difluorobenzyl)-2-oxo-6-(4-phenoxyphenyl)-4-(trifluoromethyl)-1,2-dihydropyridine-3-carbonitrile, read-out: % Efficacy
How it was run: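 CV-1 cells transiently co-transfected with full-length human LXRβ expression plasmid, LXREx1-Tk-luciferase reporter and β-galactosidase control, then exposed to compound for 20 h at 37 °C. Luciferase luminescence read; EC50 from 11-point, ½-log dose–response fit, efficacy relative to high-control agonist maximum.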

SMILES | EC50 | Emax
Cc1cc(-c2cc(-c3ccc(CO)c(S(C)(=O)=O)c3)ccc2-n2cc(C(F)(F)F)nc2C)n(-c2ccc3c(c2)OC(F)(F)O3)n1 [Example 300, (3′-(1-(2,2-difluorobenzo[d][1,3]dioxol-5-yl)-3-methyl-1H-pyrazol-5-yl)-4′-(2-methyl-4-(trifluoromethyl)-1H-imidazol-1-yl)-3-(methylsulfonyl)biphenyl-4-yl)methanol] | 12 nM | 61%
Cc1nc(-c2cc(-c3cccc(S(C)(=O)=O)c3)ccc2-n2cc(C(F)(F)F)nc2C)c(-c2ccc(C)c(F)c2)o1 [Example 504, 5-(3-fluoro-4-methylphenyl)-2-methyl-4-(4-(2-methyl-4-(trifluoromethyl)-1H-imidazol-1-yl)-3′-(methylsulfonyl)biphenyl-3-yl)oxazole] | 91 nM | 77%
Cc1nc(-c2cc(-c3cc(F)c(CO)c(S(C)(=O)=O)c3)ccc2-n2cc(C(F)(F)F)nc2C)c(-c2ccc(OCC(F)F)c(F)c2)o1 [Example 426, (3′-(5-(4-(2,2-difluoroethoxy)-3-fluorophenyl)-2-methyloxazol-4-yl)-3-fluoro-4′-(2-methyl-4-(trifluoromethyl)-1H-imidazol-1-yl)-5-(methylsulfonyl)biphenyl-4-yl)methanol] | 118 nM | 92%
Cc1nc(C(F)(F)F)cn1-c1ccc(-c2cc(F)c(CO)c(S(C)(=O)=O)c2)cc1-n1nncc1C1(c2ccc(Cl)cc2)CC1 [Example 106, (3′-{5-[1-(4-chlorophenyl)cyclopropyl]-1H-1,2,3-triazol-1-yl}-3-fluoro-5-(methylsulfonyl)-4′-[2-methyl-4-(trifluoromethyl)-1H-imidazol-1-yl]biphenyl-4-yl)methanol] | 281 nM | 48%
Cc1nc(C(F)(F)F)cn1-c1ccc(-c2cc(F)c(CO)c(S(C)(=O)=O)c2)cc1-c1nc(CCO)oc1-c1ccc(OC(F)(F)F)cc1 [Example 525, 2-(4-(3′-fluoro-4′-(hydroxymethyl)-4-(2-methyl-4-(trifluoromethyl)-1H-imidazol-1-yl)-5′-(methylsulfonyl)-[1,1′-biphenyl]-3-yl)-5-(4-(trifluoromethoxy)phenyl)oxazol-2-yl)ethanol] | 650 nM | 67%
Cc1nc(C(F)F)c(C)n1-c1ccc(-c2cccc(S(C)(=O)=O)c2)cc1-n1nncc1-c1ccc(Cl)cc1 [Example 230, 5-(4-chlorophenyl)-1-(4-(4-(difluoromethyl)-2,5-dimethyl-1H-imidazol-1-yl)-3′-(methylsulfonyl)-[1,1′-biphenyl]-3-yl)-1H-1,2,3-triazole] | 2050 nM | 24%
Cc1nc(C(F)(F)F)cn1-c1ccc(-c2cc(F)c(CO)c(S(C)(=O)=O)c2)cc1-c1nc(C2CC2)oc1-c1ccc2c(c1)OC(F)(F)O2 [Example 483] | 40 nM | 66%
Cc1ccc(-c2cnnn2-c2cc(-c3cc(Cl)c(CO)c(S(C)(=O)=O)c3)ccc2-n2cc(C(F)(F)F)nc2C)cc1 [Example 63, {3-chloro-3′-[5-(4-methylphenyl)-1H-1,2,3-triazol-1-yl]-5-(methyllsulfonyl)-4′-[2-methyl-4-(trifluoromethyl)-1H-imidazol-1-yl]biphenyl-4-yl}methanol] | 281 nM | 68%
Cc1nc(-c2cc(-c3cccc(S(C)(=O)=O)c3)ccc2-n2cc(Cl)nc2C)c(-c2ccc3c(c2)OC(F)(F)O3)o1 [Example 423, 4-(4-(4-chloro-2-methyl-1H-imidazol-1-yl)-3′-(methylsulfonyl)biphenyl-3-yl)-5-(2,2-difluorobenzo[d][1,3]dioxol-5-yl)-2-methyloxazole] | 61 nM | 74%
Cc1nc(-c2ccc(OC(F)F)cc2)c(-c2cc(-c3cc(F)c(CO)c(S(C)(=O)=O)c3)ccc2-n2cc(C(F)(F)F)nc2C)o1 [Example 624, (3′-(4-(4-(difluoromethoxy)phenyl)-2-methyloxazol-5-yl)-3-fluoro-4′-(2-methyl-4-(trifluoromethyl)-1H-imidazol-1-yl)-5-(methylsulfonyl)-[1,1′-biphenyl]-4-yl)methanol] | 42 nM | 112%
Cc1cc(-c2oc(C)nc2-c2cc(-c3cccc(S(C)(=O)=O)c3)ccc2-n2cc(Cl)nc2C)cc(Cl)n1 [Example 468, 4-(4-(4-chloro-2-methyl-1H-imidazol-1-yl)-3′-(methylsulfonyl)biphenyl-3-yl)-5-(2-chloro-6-methylpyridin-4-yl)-2-methyloxazole] | 442 nM | 47%
CS(=O)(=O)c1cccc(-c2cc(Cl)c(-n3cnc(C(F)(F)F)c3)c(-n3nncc3-c3ccc(Cl)cc3)c2)c1 [Example 7, 1-(5-chloro-3′-(methylsulfonyl)-4-(4-(trifluoromethyl)-1H-imidazol-1-yl)biphenyl-3-yl)-5-(4-chlorophenyl)-1H-1,2,3-triazole] | 408 nM | 55%
Cc1nc(-c2cc(-c3cc(F)c(CO)c(S(C)(=O)=O)c3)ccc2-n2cc(C(F)(F)F)nc2C)c(-c2ccc(Cl)cc2F)o1 [Example 485, (3′-(5-(4-chloro-2-fluorophenyl)-2-methyloxazol-4-yl)-3-fluoro-4′-(2-methyl-4-(trifluoromethyl)-1H-imidazol-1-yl)-5-(methylsulfonyl)biphenyl-4-yl)methanol] | 32 nM | 55%
Cc1nc(-c2cc(-c3cccc(S(C)(=O)=O)c3)ccc2-n2cc(C(F)(F)F)nc2C)c(-c2ccc3c(c2)OC(F)(F)O3)o1 [Example 493, 5-(2,2-difluorobenzo[d][1,3]dioxol-5-yl)-2-methyl-4-(4-(2-methyl-4-(trifluoromethyl)-1H-imidazol-1-yl)-3′-(methylsulfonyl)biphenyl-3-yl)oxazole] | 40 nM | 95%
CCc1nc(-c2ccc(OC(F)(F)F)cc2)c(-c2cc(-c3cc(F)c(CO)c(S(C)(=O)=O)c3)ccc2-n2cc(C(F)(F)F)nc2C)o1 [Example 600, {3′-(2-ethyl-4-{4-[(trifluoromethyl)oxy]phenyl}-1,3-oxazol-5-yl)-3-fluoro-5-(methylsulfonyl)-4′-[2-methyl-4-(trifluoromethyl)-1H-imidazol-1-yl]biphenyl-4-yl}methanol] | 20 nM | 101%
Cc1nc(-c2cc(-c3cccc(C4(C(N)=O)CC4)c3)ccc2-n2cc(C(F)(F)F)nc2C)c(-c2ccc3c(c2)OC(F)(F)O3)o1 [Example 446, 1-(3′-(5-(2,2-difluorobenzo[d][1,3]dioxol-5-yl)-methyloxazol-4-yl)-4′-(2-methyl-4-(trifluoromethyl)-1H-imidazol-1-yl)biphenyl-3-yl)cyclopropanecarboxamide] | 836 nM | 51%
Cc1ccc(C(C)c2cnnn2-c2cc(-c3cc(F)c(CO)c(S(C)(=O)=O)c3)ccc2-n2cc(C(F)(F)F)nc2C)cc1 (stereo not drawn) [Example 9, (3-fluoro-3′-{5-[1-(4-methylphenyl)ethyl]-1H-1,2,3-triazol-1-yl}-5-(methylsulfonyl)-4′-[2-methyl-4-(trifluoromethyl)-1H-imidazol-1-yl]biphenyl-4-yl)methanol] | 66 nM | 75%
Cc1nc(C(F)(F)F)cn1-c1ccc(-c2cccc(S(C)(=O)=O)c2)cc1-n1nncc1-c1ccc(F)cn1 [Example 77, 5-fluoro-2-(1-{3′-(methylsulfonyl)-4-[2-methyl-4-(trifluoromethyl)-1H-imidazol-1-yl]biphenyl-3-yl}-1H-1,2,3-triazol-5-yl)pyridine] | 3330 nM | 63%
